Data: US20230398130A1, “METHODS AND COMPOSITIONS FOR DIFFERENTIATING STEM CELLS” (Massachusetts Institute of Technology, priority 2020, published 2023)

Experiments:
ISC-enriched organoids [1] = assay: Primary screen, 384-well 2.5-D organoid differentiation (ENR+CD, 6 days): basal lysozyme secretion (LYZ.NS); type: cell-based, murine; details: for Dose.FC.LYZ.NS / Z.LYZ.NS: primary screen; for Dose.FC.LYZ.NS: FC vs plate median
From the text: (§1) High-throughput screening.

ISC-enriched organoids [2] = assay: Primary screen, 384-well 2.5-D organoid differentiation (ENR+CD, 6 days): carbachol-induced lysozyme secretion (LYZ.S); type: cell-based, murine; details: for Dose.FC.LYZ.S: primary screen, FC vs plate median
From the text: as §1

ISC-enriched organoids [3] = assay: Primary screen, 384-well 2.5-D organoid differentiation (ENR+CD, 6 days, Target Selective Inhibitor Library, vs whole-plate median): ATP (CellTiter-Glo 3D, CTG); details: for Dose.FC.CTG / Z.CTG: primary screen; for Dose.FC.CTG: FC vs plate median
[4] = dose 0.08 uM, standard z score of FC
[5] = dose 0.40 uM, standard z score of FC
[6] = dose 2.00 uM, standard z score of FC
[7] = dose 10.00 uM, standard z score of FC
[8] = dose 0.08 uM (1st of 4 lines per treatment; dose not printed in this part)
[9] = dose 0.40 uM (2nd of 4 lines per treatment; dose not printed in this part)
[10] = dose 2.00 uM (3rd of 4 lines per treatment; dose not printed in this part)
[11] = dose 10.00 uM (4th of 4 lines per treatment; dose not printed in this part)
[12] = Dose 10.00 uM, standard z score

| Structure (SMILES) | Dose.FC.LYZ.NS (ISC-enriched organoids [1]; dose 0.08 uM, ENR+CD 6 days) [log 2 fold change] | Z.LYZ.NS (ISC-enriched organoids [1]; [4]) | Dose.FC.LYZ.NS (ISC-enriched organoids [1]; dose 0.40 uM, ENR+CD 6 days) [log 2 fold change] | Z.LYZ.NS (ISC-enriched organoids [1]; [5]) | Dose.FC.LYZ.NS (ISC-enriched organoids [1]; dose 2.00 uM, ENR+CD 6 days) [log 2 fold change] | Z.LYZ.NS (ISC-enriched organoids [1]; [6]) | Dose.FC.LYZ.NS (ISC-enriched organoids [1]; dose 10.00 uM, ENR+CD 6 days) [log 2 fold change] | Z.LYZ.NS (ISC-enriched organoids [1]; [7]) | Dose.FC.LYZ.S (ISC-enriched organoids [2]; dose 0.08 uM, ENR+CD 6 days) [log 2 fold change] | Dose.FC.LYZ.S (ISC-enriched organoids [2]; dose 0.40 uM, ENR+CD 6 days) [log 2 fold change] | Dose.FC.LYZ.S (ISC-enriched organoids [2]; dose 2.00 uM, ENR+CD 6 days) [log 2 fold change] | Dose.FC.LYZ.S (ISC-enriched organoids [2]; dose 10.00 uM, ENR+CD 6 days) [log 2 fold change] | Dose.FC.CTG (ISC-enriched organoids [3]; dose 0.08 uM, ENR+CD 6 days) [log 2 fold change] | Z.CTG (ISC-enriched organoids [3]; [4]) | Dose.FC.CTG (ISC-enriched organoids [3]; dose 0.40 uM, ENR+CD 6 days) [log 2 fold change] | Z.CTG (ISC-enriched organoids [3]; [5]) | Dose.FC.CTG (ISC-enriched organoids [3]; dose 2.00 uM, ENR+CD 6 days) [log 2 fold change] | Z.CTG (ISC-enriched organoids [3]; [6]) | Dose.FC.CTG (ISC-enriched organoids [3]; dose 10.00 uM, ENR+CD 6 days) [log 2 fold change] | Z.CTG (ISC-enriched organoids [3]; [7]) | also measured |
| --- | --- | --- | --- | --- | --- | --- | --- | --- | --- | --- | --- | --- | --- | --- | --- | --- | --- | --- | --- | --- | --- |
| COc1cc(OC2CCN(C)CC2)ccc1Nc1ncc2c(n1)n(C1CCCC1)c(=O)n2C [AZ 3146] | 0.073 | 0.639 | −0.038 | −0.327 | −0.079 | −0.687 | −0.281 | −2.447 | 0.049 | −0.067 | −0.130 | −0.422 | −0.130 | −0.310 | −0.262 | −0.626 | −0.369 | −0.881 | −1.168 | −2.789 |  |
| COc1cc2c(cc1O)CC[C@@H]1[C@@H]2CC[C@]2(C)[C@@H](O)CC[C@@H]12 [2-Methoxyestradiol (2-MeOE2)] | 0.021 | 0.186 | 0.065 | 0.566 | 0.005 | 0.041 | −0.139 | −1.209 | 0.189 | 0.270 | 0.029 | −0.278 | 0.299 | 0.714 | 0.401 | 0.957 | 0.227 | 0.543 | −0.672 | −1.606 | SSMD.LYZ.NS_Rep (strictly standardized mean difference) (ISC-enriched organoids [1]; [8]): 0.077; SSMD.LYZ.NS_Rep (strictly standardized mean difference) (ISC-enriched organoids [1]; [9]): 0.227; SSMD.LYZ.NS_Rep (strictly standardized mean difference) (ISC-enriched organoids [1]; [10]): 0.049; SSMD.LYZ.NS_Rep (strictly standardized mean difference) (ISC-enriched organoids [1]; [11]): −0.826; SSMD.LYZ.S_Rep (strictly standardized mean difference) (ISC-enriched organoids [2]; [8]): 1.015; Z.LYZ.S (standard z score) (ISC-enriched organoids [2]; [8]): 1.224; SSMD.LYZ.S_Rep (strictly standardized mean difference) (ISC-enriched organoids [2]; [9]): 0.831; Z.LYZ.S (standard z score) (ISC-enriched organoids [2]; [9]): 1.747; SSMD.LYZ.S_Rep (strictly standardized mean difference) (ISC-enriched organoids [2]; [10]): 0.144; Z.LYZ.S (standard z score) (ISC-enriched organoids [2]; [10]): 0.190; SSMD.LYZ.S_Rep (strictly standardized mean difference) (ISC-enriched organoids [2]; [11]): −1.135; Z.LYZ.S (standard z score) (ISC-enriched organoids [2]; [11]): −1.795; SSMD.CTG_Rep (strictly standardized mean difference) (ISC-enriched organoids [3]; [8]): 0.407; SSMD.CTG_Rep (strictly standardized mean difference) (ISC-enriched organoids [3]; [9]): 0.930; SSMD.CTG_Rep (strictly standardized mean difference) (ISC-enriched organoids [3]; [10]): 0.461; SSMD.CTG_Rep (strictly standardized mean difference) (ISC-enriched organoids [3]; [11]): −0.878 |
| CC1=C(C(=O)Nc2cc3cn[nH]c3cc2F)C(c2ccc(C(F)(F)F)cc2)CC(=O)N1 (stereo not shown) [GSK429286A] |  |  |  |  |  |  |  |  |  |  |  |  |  |  |  |  |  |  |  |  | Dose.FC.LYZ.NS (ISC-enriched organoids [1]; Dose 0.08 uM): 0.137 log 2 fold change; Z.LYZ.NS (ISC-enriched organoids [1]; Dose 0.08 uM, standard z score): 1.197; Dose.FC.LYZ.NS (ISC-enriched organoids [1]; Dose 0.40 uM): 0.128 log 2 fold change; Z.LYZ.NS (ISC-enriched organoids [1]; Dose 0.40 uM, standard z score): 1.117; Dose.FC.LYZ.NS (ISC-enriched organoids [1]; Dose 2.00 uM): 0.140 log 2 fold change; Z.LYZ.NS (ISC-enriched organoids [1]; Dose 2.00 uM, standard z score): 1.222; Dose.FC.LYZ.NS (ISC-enriched organoids [1]; Dose 10.00 uM): 0.059 log 2 fold change; Z.LYZ.NS (ISC-enriched organoids [1]; [12]): 0.517; Dose.FC.LYZ.S (ISC-enriched organoids [2]; Dose 0.08 uM): 0.247 log 2 fold change; Dose.FC.LYZ.S (ISC-enriched organoids [2]; Dose 0.40 uM): 0.283 log 2 fold change; Dose.FC.LYZ.S (ISC-enriched organoids [2]; Dose 2.00 uM): 0.245 log 2 fold change; Dose.FC.LYZ.S (ISC-enriched organoids [2]; Dose 10.00 uM): 0.099 log 2 fold change; Dose.FC.CTG (ISC-enriched organoids [3]; Dose 0.08 uM): 0.527 log 2 fold change; Z.CTG (ISC-enriched organoids [3]; Dose 0.08 uM, standard z score): 1.260; Dose.FC.CTG (ISC-enriched organoids [3]; Dose 0.40 uM): 0.545 log 2 fold change; Z.CTG (ISC-enriched organoids [3]; Dose 0.40 uM, standard z score): 1.302; Dose.FC.CTG (ISC-enriched organoids [3]; Dose 2.00 uM): 0.488 log 2 fold change; Z.CTG (ISC-enriched organoids [3]; Dose 2.00 uM, standard z score): 1.166; Dose.FC.CTG (ISC-enriched organoids [3]; Dose 10.00 uM): 0.370 log 2 fold change; Z.CTG (ISC-enriched organoids [3]; [12]): 0.883 |
